Measured values as given in publication PMC1781467, “In silico panning for a non-competitive peptide inhibitor” (BMC Bioinformatics, 2007).
Ends that are not written are not given here. Peptide text beside a SMILES is read from it.

Legend:
[1] = target: T1, PQQGDH (Acinetobacter calcoaceticus, UniProt P13650); assay: PQQGDH activity for glucose in the presence of synthetic peptides (PMS/DCIP assay); assay type: biochemical; settings: derived from the Dixon plot; 0.57 nM apo-PQQGDH, glucose substrate, pH 7.0; read-out: Ki (inhibition constant)
Protocol: The three peptides with the lowest docking energies, GEKD, GERD, and SERG, and the control peptide DDDD were synthesized by Qiagen (Chatsworth, CA, USA). […] In general, purified PQQGDH is a mixture of an apo- and holo-type enzyme. Therefore, we dialyzed the enzyme against 100 mM EDTA and 10 mM MOPS-NaOH buffer for 2 days, to remove the Ca^2+ ions. Each synthesized peptide was prepared at concentrations of 0.2, 1, 2, 10, and 20 μM. The prepared peptides and 0.57 nM of apo-PQQGDH were incubated in 10 mM MOPS-NaOH buffer (pH 7.0) for 10 min at room temperature. PQQGDH activity was measured using 0.6 mM PMS and 0.06 mM DCIP. Decreased in the absorbance of DCIP at 600 nm at various concentrations of glucose were monitored, and the kinetic parameters of PQQGDH were as described previously. The kinetic parameters and Ki values were calculated using the KaleidaGraph software.

[2] = target: T1, PQQGDH; design: method as in PMID 12882541; settings: peptide from phage display peptide library; cited from earlier work

T1 sequence (P13650 25-478): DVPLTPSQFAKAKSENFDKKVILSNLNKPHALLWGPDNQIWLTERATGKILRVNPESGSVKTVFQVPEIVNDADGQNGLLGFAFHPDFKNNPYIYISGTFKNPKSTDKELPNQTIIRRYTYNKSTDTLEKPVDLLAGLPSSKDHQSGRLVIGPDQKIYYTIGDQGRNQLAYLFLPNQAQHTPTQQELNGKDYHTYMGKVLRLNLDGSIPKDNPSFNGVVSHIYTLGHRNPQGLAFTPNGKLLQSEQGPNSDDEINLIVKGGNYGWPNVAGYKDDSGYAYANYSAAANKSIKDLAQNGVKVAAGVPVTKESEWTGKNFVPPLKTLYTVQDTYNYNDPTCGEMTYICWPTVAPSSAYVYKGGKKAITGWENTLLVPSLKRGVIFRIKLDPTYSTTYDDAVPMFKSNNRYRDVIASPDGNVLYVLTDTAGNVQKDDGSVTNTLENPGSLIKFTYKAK

Compound	Ki [1]	Effect on substrate specificity of PQQGDH [2]
NCCCC[C@H](NC(=O)[C@H](CCC(=O)O)NC(=O)CN)C(=O)N[C@@H](CC(=O)O)C(=O)O [GEKD] (H-GEKD-OH)	> 20 µM	–
N[C@@H](CC(=O)O)C(=O)N[C@@H](CC(=O)O)C(=O)N[C@@H](CC(=O)O)C(=O)N[C@@H](CC(=O)O)C(=O)O [DDDD] (H-DDDD-OH)	> 100 µM	–
N=C(N)NCCC[C@H](NC(=O)[C@H](CCC(=O)O)NC(=O)[C@@H](N)CO)C(=O)NCC(=O)O [SERG] (H-SERG-OH)	20 µM	–
N=C(N)NCCC[C@H](NC(=O)[C@H](CCC(=O)O)NC(=O)CN)C(=O)N[C@@H](CC(=O)O)C(=O)O [GERD] (H-GERD-OH)	> 20 µM	–
TTATEYS [seven-amino-acid peptide previously identified from a phage display peptide library]	–	narrowed the substrate specificity of PQQGDH without significant loss of enzyme activity
